In ChEMBL document CHEMBL5120927, “LEGO-Lipophosphonoxins: A Novel Approach in Designing Membrane Targeting Antimicrobials” (J Med Chem, 2022):

Columns and labels:
Enterococcus faecalis = assay: Antibacterial activity against Enterococcus faecalis ATCC 29212 = CCM 4224 assessed as inhibition of bacterial growth incubated for 24 hrs by microdilution assay; type: functional
Staphylococcus aureus [1] = assay: Antibacterial activity against Staphylococcus aureus ATCC 29213 = CCM 4223 assessed as inhibition of bacterial growth incubated for 24 hrs by microdilution assay; type: functional
Staphylococcus aureus [2] = assay: Antibacterial activity against Staphylococcus aureus ATCC 29213 = CCM 4223 assessed as inhibition of bacterial growth incubated for 24 hrs in presence of BSA by microdilution assay; type: functional
Escherichia coli [3] = assay: Antibacterial activity against Escherichia coli ATCC 25922 = CCM 3954 assessed as inhibition of bacterial growth incubated for 24 hrs by microdilution assay; type: functional
Escherichia coli [4] = assay: Antibacterial activity against Escherichia coli ATCC 25922 = CCM 3954 assessed as inhibition of bacterial growth incubated for 24 hrs in presence of BSA by microdilution assay; type: functional
Pseudomonas aeruginosa [5] = assay: Antibacterial activity against Pseudomonas aeruginosa ATCC 27853 = CCM 3955 assessed as inhibition of bacterial growth incubated for 24 hrs by microdilution assay; type: functional
[6] = Hemolytic activity in human RBC assessed as haemoglobin release measured after 3 hr; type: toxicity, cell-based, Erythrocyte; conditions: red blood cells (erythrocytes)
[7] = Gradient chromatographic hydrophobicity index of the compound at pH 3.7 by HPLC analysis; type: ADME
[8] = tested on: Staphylococcus epidermidis; assay: Antibacterial activity against Staphylococcus epidermidis CCM 7221 assessed as inhibition of bacterial growth incubated for 24 hrs by microdilution assay; type: functional
Staphylococcus aureus [9] = assay: Antibacterial activity against methicillin resistant Staphylococcus aureus 4591/A assessed as reduction in microbial growth incubated for 24 hrs by microdilution assay; type: functional
Escherichia coli [10] = assay: Antibacterial activity against multidrug-resistant Escherichia coli CE5556 expressing CTX-M-15 assessed as reduction in microbial growth incubated for 24 hrs by microdilution assay; type: functional
Enterococcus faecium = assay: Antibacterial activity against vancomycin resistant Enterococcus faecium 419/ANA assessed as reduction in microbial growth incubated for 24 hrs by microdilution assay; type: functional
Pseudomonas aeruginosa [11] = assay: Antibacterial activity against multidrug-resistant Pseudomonas aeruginosa assessed as reduction in microbial growth incubated for 24 hrs by microdilution assay; type: functional

| Compound | MIC (Enterococcus faecalis) [µg/mL] | MIC (Staphylococcus aureus [1]) [µg/mL] | MIC (Staphylococcus aureus [2]) [µg/mL] | MIC (Escherichia coli [3]) [µg/mL] | MIC (Escherichia coli [4]) [µg/mL] | MIC (Pseudomonas aeruginosa [5]) [µg/mL] | HC50 at 3 h [6] [µg/mL] | CHI [7] | MIC [8] [µg/mL] | MIC (Staphylococcus aureus [9]) [µg/mL] | MIC (Escherichia coli [10]) [µg/mL] | MIC (Enterococcus faecium) [µg/mL] | MIC (Pseudomonas aeruginosa [11]) [µg/mL] |
| --- | --- | --- | --- | --- | --- | --- | --- | --- | --- | --- | --- | --- | --- |
| CCCCC/C=C\CCCOP(=O)(CCN(CCCN)CCCN)OCCCCCCOP(=O)(CCN(CCCN)CCCN)OCCC/C=C\CCCCC.Cl.Cl.Cl.Cl.Cl.Cl (configuration not stated) | 1 | 0.5 | 1 | 0.5 | 1 | 2 | 43 | 40.6 | 0.5 | 0.5 | 1 | 2 | 2 |
| CCCC/C=C\CCOP(=O)(CCN(CCCN)CCCN)OCCCOP(=O)(CCN(CCCN)CCCN)OCC/C=C\CCCC.Cl.Cl.Cl.Cl.Cl.Cl (configuration not stated) | 128 | 16 | 32 | 128 | 128 | 64 | > 200 | 31.3 | 8 | 16 | 128 | > 128 | 128 |
| CCCCCCCCCCOP(=O)(CCN(CCCN)CCCN)OCCCCCCCCCCOP(=O)(CCN(CCCN)CCCN)OCCCCCCCCCC.Cl.Cl.Cl.Cl.Cl.Cl (configuration not stated) | 2 | 2 | 1 | > 2 | 16 | 4 | 5.2 | 46.9 | 1 | 1 | 2 | 2 | 4 |
| CC/C=C\CCCOP(=O)(CCN(CCCN)CCCN)OCCCOP(=O)(CCN(CCCN)CCCN)OCCC/C=C\CC.Cl.Cl.Cl.Cl.Cl.Cl (configuration not stated) | > 128 | 128 | > 128 | > 128 | > 128 | > 128 | > 200 | 25.1 | 32 | 64 | > 128 | > 128 | > 128 |
| CCCCCCCCCCOP(=O)(CCN(CCCN)CCCN)OCCCCCCOP(=O)(CCN(CCCN)CCCN)OCCCCCCCCCC.Cl.Cl.Cl.Cl.Cl.Cl (configuration not stated) | 1 | 1 | 0.2 | 1 | 1 | 1 | 16 | 44 | 0.5 | 0.5 | 1 | 1 | 2 |
| CCCC/C=C\CCOP(=O)(CCN(CCN)CCN)OCCCCCCOP(=O)(CCN(CCN)CCN)OCC/C=C\CCCC.Cl.Cl.Cl.Cl.Cl.Cl (configuration not stated) | 4 | 1 | 2 | 1 | 2 | 16 | 254 | 40.1 | 0.5 | 1 | 2 | 32 | 8 |
| CCCCOP(=O)(CCN(CCCN)CCCN)OCCCCCCCCCCOP(=O)(CCN(CCCN)CCCN)OCCCC.Cl.Cl.Cl.Cl.Cl.Cl (configuration not stated) | 128 | 16 | 16 | > 128 | > 128 | > 128 | > 500 | 27.3 | 4 | 8 | > 128 | > 128 | > 128 |
| Cl.Cl.Cl.Cl.Cl.Cl.NCCCN(CCCN)CCP(=O)(OCCCCCCOP(=O)(CCN(CCCN)CCCN)OCC1CCCC1)OCC1CCCC1 (configuration not stated) | > 128 | 128 | > 128 | > 128 | > 128 | > 128 | > 1000 | 14.8 | 64 | 128 | > 128 | > 128 | > 128 |
| Cl.Cl.Cl.Cl.Cl.Cl.NCCCN(CCCN)CCP(=O)(OCCCCCCCCCCCCOP(=O)(CCN(CCCN)CCCN)OCCc1ccccc1)OCCc1ccccc1 (configuration not stated) | 4 | 1 | 2 | 4 | 8 | 8 | 358 | 34.8 | 0.5 | 4 | 16 | 32 | 8 |
